Read-outs that look alike come from different tables or passages of the source.
What was measured:
Assay in all cases: 3D clonogenic assay (PDX)
Assay type in all cases: cell-based, human
HNXF 536 = settings: HNXF 536, Head and Neck; for IC50: Homo sapiens
Experimental: (§1) The anti-tumor efficacy of S1 in the patient-derived tumor xenograft (PDX) tumor panel was assessed, where the efficacy of S1 in PDX tumor panel in the 96-well format, in 10 concentrations in duplicate was performed. Colony formation of tumor cell suspensions in a soft-agar matrix was observed and quantified. The output is IC50 values and dose response-relationships based on number of colonies in control and treatment wells, as identified by an automated image analysis algorithm. Stock solution of S1 was prepared in 100% DMSO at 10 mM concentration (stored at -20°C) and reused for each experiment. Compound final test concentrations: Dilution series ½ i.e.: 50µM, 15, 5, 1.5, 0.5, 0.15, 0.05, 0.015, 0.005 and 0.0015.
(§2) Tumor xenografts (also referred to as patient-derived tumor xenografts) were passaged as subcutaneous xenografts in NMRI nu/nu mice. Tumor xenograft were removed from mice under sterile conditions, mechanically disaggregated and subsequently incubated with an enzyme cocktail consisting of collagenase type IV (41 U/mL), DNase I (125 U/mL), hyaluronidase type III (100 U/mL) and dispase II (1.0 U/mL) in RPMI 1640 medium at 37°C for 60 - 120 minutes. Cells were passed through sieves of 100 µm and 40 µm mesh size and washed with RPMI 1640 medium. The percentage of viable cells was determined in a Neubauer-hemocytometer using trypan blue exclusion. Aliquots of the cells were frozen down, and stored in liquid nitrogen.
(§3) The clonogenic assay test was carried out in 96 well plate format. For each test a frozen aliquot of tumor cells prepared from tumor xenografts was thawed and assay plates were prepared as follows: each test well contained 3 layers of equal volume, 2 layers of semi-solid medium (bottom and top layer), and one layer of medium supernatant, with or without test compound. The bottom layer consisted of 0.05 mL/well Iscove's Modified Dulbecco's Medium (Invitrogen), supplemented with 20% (v/v) fetal calf serum (Sigma), 0.01% (w/v) gentamicin (Invitrogen) and 0.75% (w/v) agar (BD Biosciences). Tumor cells were added to 0.05 mL of the same culture medium supplemented with 0.4% (w/v) agar and plated onto the bottom layer. After 24 h, test compounds were added after serial dilution in DMSO and transfer in cell culture medium, and left on the cells for the duration of the experiment (continuous exposure, 0.05 mL drug overlay). Every dish included six untreated control wells and drug-treated groups in duplicate at 10 concentrations. Cultures were incubated at 37 °C and 7.5% CO2 in a humidified atmosphere for 8 to 13 days and monitored closely for colony growth using an inverted microscope. Within this period, ex vivo tumor growth lead to the formation of colonies with a diameter of >50 µm. At the time of maximum colony formation, counts were performed with an automatic image analysis system. 24 h prior to evaluation, vital colonies were stained with a sterile aqueous solution of 2-(4-iodophenyl)-3-(4-nitrophenyl)-5-phenyltetrazolium chloride (1 mg/mL, 100 µL/well). Sigmoidal concentration-response curves were fitted to the data points obtained for each tumor model using 4 parameter non-linear curve fit (Oncotest Warehouse Software). IC50 values are reported as relative IC50 values, being the concentration of test compound that give a response (inhibition of colony formation/viability) half way between the top and bottom plateau of the sigmoidal concentration-response curve (inflection point of the curve), or as absolute IC50 values, being the concentration of test compound at the intersection of the concentration-response curves with T/C = 50%. For calculation of mean IC50 values the geometric mean was used. Results are presented as mean graph plots or heat maps (individual IC50 values relative to the geometric mean IC50 value) over all cell lines as tested.

LXFA 526 = settings: LXFA 526, Lung Adeno; for IC50: Homo sapiens
Experimental: as §1, §2, §3

LXFA 629 = settings: LXFA 629, Lung Adeno; for IC50: Homo sapiens
Experimental: as §1, §2, §3

SXFS 1937 = settings: SXFS 1937, Sarcoma Soft Tissue; for IC50: Homo sapiens
Experimental: as §1, §2, §3

PAXF 2045 = settings: PAXF 2045, Pancreas; for IC50: Homo sapiens
Experimental: as §1, §2, §3

RXF 616 = settings: RXF 616, Renal; for IC50: Homo sapiens
Experimental: as §1, §2, §3

PXF 1752 = settings: PXF 1752, Pleuramesothelioma; for IC50: Homo sapiens
Experimental: as §1, §2, §3

CXF 1103 = settings: CXF 1103, Colorectal; for IC50: Homo sapiens, CXF1103
Experimental: as §1, §2, §3

LXFA 1041 = settings: LXFA 1041, Lung Adeno; for IC50: Homo sapiens
Experimental: as §1, §2, §3

LXFL 1674 = settings: LXFL 1674, Lung Large Cell; for IC50: Homo sapiens
Experimental: as §1, §2, §3

CXF 2025 = settings: CXF 2025, Colorectal; for IC50: Homo sapiens
Experimental: as §1, §2, §3

LXFL 529 = settings: LXFL 529, Lung Large Cell; for IC50: Homo sapiens
Experimental: as §1, §2, §3

Compound: O[C@H](c1cc(-c2ccc(Cl)cc2)nc2ccccc12)[C@@H]1CCCCN1 [S1, (R)-(2-(4-chlorophenyl)quinolin-4-yl)((S)-piperidin-2-yl)methanol]
- b (bottom plateau of concentration-effect curve) (HNXF 536): 14
- t (top plateau of concentration-effect curve) (HNXF 536): 99
- IC50 (HNXF 536; read-out: abs. IC50): 8.21 µM
- IC50 (HNXF 536; read-out: rel. IC50): 7.47 µM
- IC50 (LXFA 526; read-out: abs. IC50): 3.23 µM
- IC50 (LXFA 526; read-out: rel. IC50): 2.91 µM
- b (bottom plateau of concentration-effect curve) (LXFA 526): 10
- t (top plateau of concentration-effect curve) (LXFA 526): 96
- IC50 (LXFA 629; read-out: abs. IC50): 9.09 µM
- IC50 (LXFA 629; read-out: rel. IC50): 8.85 µM
- b (bottom plateau of concentration-effect curve) (LXFA 629): 26
- t (top plateau of concentration-effect curve) (LXFA 629): 108
- IC50 (SXFS 1937; read-out: abs. IC50): 10.1 µM
- IC50 (SXFS 1937; read-out: rel. IC50): 9.9 µM
- b (bottom plateau of concentration-effect curve) (SXFS 1937): 18
- t (top plateau of concentration-effect curve) (SXFS 1937): 120
- IC50 (PAXF 2045; read-out: abs. IC50): 8.14 µM
- IC50 (PAXF 2045; read-out: rel. IC50): 7.03 µM
- b (bottom plateau of concentration-effect curve) (PAXF 2045): 22
- t (top plateau of concentration-effect curve) (PAXF 2045): 95
- IC50 (RXF 616; read-out: abs. IC50): 8.81 µM
- IC50 (RXF 616; read-out: rel. IC50): 8.77 µM
- b (bottom plateau of concentration-effect curve) (RXF 616): 17
- t (top plateau of concentration-effect curve) (RXF 616): 89
- IC50 (PXF 1752; read-out: abs. IC50): 8.98 µM
- IC50 (PXF 1752; read-out: rel. IC50): 8.85 µM
- b (bottom plateau of concentration-effect curve) (PXF 1752): 15
- t (top plateau of concentration-effect curve) (PXF 1752): 109
- b (bottom plateau of concentration-effect curve) (CXF 1103): 47
- t (top plateau of concentration-effect curve) (CXF 1103): 99
- IC50 (CXF 1103; read-out: abs. IC50): 11.5 µM
- IC50 (CXF 1103; read-out: rel. IC50): 6.47 µM
- IC50 (LXFA 1041; read-out: abs. IC50): 5.3 µM
- IC50 (LXFA 1041; read-out: rel. IC50): 5.25 µM
- b (bottom plateau of concentration-effect curve) (LXFA 1041): 10
- t (top plateau of concentration-effect curve) (LXFA 1041): 95
- IC50 (LXFL 1674; read-out: abs. IC50): 6.68 µM
- IC50 (LXFL 1674; read-out: rel. IC50): 6.59 µM
- b (bottom plateau of concentration-effect curve) (LXFL 1674): 9
- t (top plateau of concentration-effect curve) (LXFL 1674): 93
- b (bottom plateau of concentration-effect curve) (CXF 2025): 33
- t (top plateau of concentration-effect curve) (CXF 2025): 97
- IC50 (CXF 2025; read-out: abs. IC50): 8.87 µM
- IC50 (CXF 2025; read-out: rel. IC50): 8.61 µM
- IC50 (LXFL 529; read-out: abs. IC50): 10.4 µM
- IC50 (LXFL 529; read-out: rel. IC50): 10.1 µM
- b (bottom plateau of concentration-effect curve) (LXFL 529): 11
- t (top plateau of concentration-effect curve) (LXFL 529): 92
